Measurements reported in patent US8828993B2, “Psychotropic agents having glutamate NMDA activity” (Ramot At Tel-Aviv University Ltd., priority 2006, dated 2014).

System: rats pretreated with MK-801
Test: Morris Water Maze in rats pretreated with MK-801
Assay type: in vivo
Details: rats, MK-801 alone 0.15 mg/kg i.p. on day 1
Method: (§1) The Morris Water Maze is a well known test aimed to assess spatial cognitive tasks (Anger, et al., Animal test systems to study behavioral dysfunctions of neurodegenerative disorders, Neurotoxicology, 12, 403-13 (1991)). The maze consists of a circular pool measuring 1.80 m in diameter 60 cm in height. The pool was filled with water (21±1° C.) to a depth of 30 cm. A circular hidden escape platform (10 cm in diameter) was placed just below the water surface. The test room contained several permanent extra maze cues such as the rat housing rack, laboratory table, posters on the walls, etc.
as §1, with “tasks.” for “tasks (Anger, et al., Animal test systems to study behavioral dysfunctions of neurodegenerative disorders, Neurotoxicology, 12, 403-13 (1991)).”
In the experiment rats were given Compound 1 orally on day 1 and the first test begun 90 minute later, six trials per day, for 3 consecutive days, to find the hidden platform (acquisition phase). The escape latency, i.e., the time required by the rat to find and climb onto the platform, was recorded for up to 120 sec. Each rat was allowed to remain on the platform for 30 sec, after which it was removed to its home cage.
A video camera was placed above the center of the pool for tracking the rat, and a video tracking system (Noldus) with online digital output directly fed data into a computer. Data were analyzed using EthoVision automated tracking system software (Noldus).
Compound 1 at both doses decreased the latency to the platform on day 3 of the experiment but not on days 1 and 2.
The relief of cognitive impairments was also shown in the use of Compound 6. […] Compound 6 at 10 mg/kg decreased the latency to the platform on days 2 and 3 of the experimentation.

Compound: C[C@]12N[C@H](Cc3ccccc31)c1ccccc12 [MK-801, reference compound]
- memory tasks (latency to the platform) compared to normal controls: significant impairment
